Reference: article PMC9616876, “Structures of the CcmABCD heme release complex at multiple states” (Nature Communications, 2022)

Columns and labels:
[1] = target: T1, CcmABCD (ATP-binding site in CcmA) (Escherichia coli, UniProt P33931); experiment: cryo-EM structure
T1 construct: full-length CcmA2B2C1D1, N-terminal His6 on CcmA; CcmABCDE operon co-expressed in E. coli BL21(DE3), CcmE not observed in purified complex; DDM-solubilised membranes; with Heme exporter protein B; Heme exporter protein C; Heme exporter protein D

[2] = target: the molecule itself; experiment: cryo-EM structure; CcmABCD purified in DDM (20 mM Tris-HCl pH 7.5, 50 mM NaCl, 0.03% DDM), ~12 mg/ml; apo, with 3.5 mM MgCl2 and AMP-PNP, or with 3.5 mM MgCl2, ATP, heme b and 1 mM DTT; closed, semi-open and open NBD states

Nc1ncnc2c1ncn2[C@@H]1O[C@H](COP(=O)(O)OP(=O)(O)OP(=O)(O)O)[C@@H](O)[C@H]1O [ATP]
cryo-EM structure ([1]; 3.5 mM ATP, 3.5 mM MgCl2, 3.5 mM heme b, 1 mM DTT, two ATP in closed NBD state (7F04), one ATP in semi-open NBD state (7VFP), ATPase activity also measured): CcmABCD bound with heme b and double ATPs in closed NBD state

Nc1ncnc2c1ncn2[C@@H]1O[C@H](COP(=O)(O)OP(=O)(O)NP(=O)(O)O)[C@@H](O)[C@H]1O [AMP-PNP]
cryo-EM structure ([1]; 3.5 mM AMP-PNP, 3.5 mM MgCl2, two AMP-PNP, closed NBD state): CcmABCD bound with AMP-PNP in closed NBD state

O=P(O)(O)O [inorganic phosphate]
cryo-EM structure ([1]; no nucleotide added, one phosphate per CcmA, closed NBD state, membranes purified in potassium phosphate buffer): each CcmA binds one inorganic phosphate

B1: CcmA (natural protein, E. coli BL21 (DE3))
chain: MGMLEARELLCERDERTLFSGLSFTLNAGEWVQITGSNGAGKTTLLRLLTGLSRPDAGEVLWQGQPLHQVRDSYHQNLLWIGHQPGIKTRLTALENLHFYHRDGDTAQCLEALAQAGLAGFEDIPVNQLSAGQQRRVALARLWLTRATLWILDEPFTAIDVNGVDRLTQRMAQHTEQGGIVILTTHQPLNVAESKIRRISLTQTRAA
notes: The whole CcmABCDE gene stretch was amplified by PCR from the genome; also called hexahistidine-tagged CcmA; NBD; not shown: His6, N-terminal, kept
stoichiometry N [2]: 2

B2: CcmB (natural protein, E. coli BL21 (DE3))
chain: MMFWRIFRLELRVAFRHSAEIANPLWFFLIVITLFPLSIGPEPQLLARIAPGIIWVAALLSSLLALERLFRDDLQDGSLEQLMLLPLPLPAVVLAKVMAHWMVTGLPLLILSPLVAMLLGMDVYGWQVMALTLLLGTPTLGFLGAPGVALTVGLKRGGVLLSILVLPLTIPLLIFATAAMDAASMHLPVDGYLAILGALLAGTATLSPFATAAALRISIQ
notes: CcmB, integral membrane protein with six transmembrane helices, gene amplified from the E. coli BL21 (DE3) genome; also called CcmB1; CcmB2
stoichiometry N [2]: 2
